Assay results from article PMC10882719 (Frontiers in Neuroscience, 2024).
Read-outs that look alike come from different tables or passages of the source.

Legend:
Format in all cases: cell-based
[1] = molecular target: T1, 168 GPCRs (Homo sapiens, UniProt P32246)
T1 construct: host or cells: PathHunter cell lines
T1 sequence (P32246 1-355): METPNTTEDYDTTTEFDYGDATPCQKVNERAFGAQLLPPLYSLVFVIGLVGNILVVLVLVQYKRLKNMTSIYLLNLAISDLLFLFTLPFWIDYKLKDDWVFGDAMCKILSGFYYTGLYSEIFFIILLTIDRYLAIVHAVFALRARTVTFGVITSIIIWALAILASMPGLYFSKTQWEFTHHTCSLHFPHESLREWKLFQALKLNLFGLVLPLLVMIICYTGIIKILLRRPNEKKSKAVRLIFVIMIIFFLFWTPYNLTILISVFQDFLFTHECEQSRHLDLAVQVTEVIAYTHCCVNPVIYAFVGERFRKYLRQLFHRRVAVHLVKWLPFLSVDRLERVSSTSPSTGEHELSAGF

[2] = molecular target: T2, 168 GPCRs (Homo sapiens, UniProt P24530); details: EDNRB
T2 construct: host or cells: PathHunter cell lines
T2 sequence (P24530 27-442): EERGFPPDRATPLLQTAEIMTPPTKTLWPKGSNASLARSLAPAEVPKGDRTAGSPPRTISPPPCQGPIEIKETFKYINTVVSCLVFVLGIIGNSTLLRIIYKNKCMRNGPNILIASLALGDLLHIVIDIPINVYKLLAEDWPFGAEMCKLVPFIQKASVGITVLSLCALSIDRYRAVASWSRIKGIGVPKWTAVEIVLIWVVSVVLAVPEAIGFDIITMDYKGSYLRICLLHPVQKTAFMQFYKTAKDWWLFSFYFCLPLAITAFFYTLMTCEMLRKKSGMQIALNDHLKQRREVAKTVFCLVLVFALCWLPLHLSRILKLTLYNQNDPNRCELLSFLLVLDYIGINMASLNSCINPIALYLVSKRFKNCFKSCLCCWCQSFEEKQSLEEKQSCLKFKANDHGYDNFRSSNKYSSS

[3] = molecular target: T3, 168 GPCRs (Homo sapiens, UniProt Q969F8); details: KISS1R
T3 construct: host or cells: PathHunter cell lines
T3 sequence (Q969F8 whole entry): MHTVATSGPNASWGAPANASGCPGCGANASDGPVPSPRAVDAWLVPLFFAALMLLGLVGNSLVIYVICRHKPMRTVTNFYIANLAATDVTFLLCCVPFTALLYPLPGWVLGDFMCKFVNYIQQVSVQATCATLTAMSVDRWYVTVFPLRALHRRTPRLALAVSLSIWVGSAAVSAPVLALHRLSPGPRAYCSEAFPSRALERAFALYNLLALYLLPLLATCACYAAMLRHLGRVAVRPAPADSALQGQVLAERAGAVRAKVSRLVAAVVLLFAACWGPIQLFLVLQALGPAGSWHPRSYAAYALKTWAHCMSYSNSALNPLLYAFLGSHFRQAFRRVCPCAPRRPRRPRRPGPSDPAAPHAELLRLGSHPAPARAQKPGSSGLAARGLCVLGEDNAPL

[4] = molecular target: T4, 168 GPCRs (Homo sapiens, UniProt P33032); details: MC5R
T4 construct: host or cells: PathHunter cell lines
T4 sequence (P33032 whole entry): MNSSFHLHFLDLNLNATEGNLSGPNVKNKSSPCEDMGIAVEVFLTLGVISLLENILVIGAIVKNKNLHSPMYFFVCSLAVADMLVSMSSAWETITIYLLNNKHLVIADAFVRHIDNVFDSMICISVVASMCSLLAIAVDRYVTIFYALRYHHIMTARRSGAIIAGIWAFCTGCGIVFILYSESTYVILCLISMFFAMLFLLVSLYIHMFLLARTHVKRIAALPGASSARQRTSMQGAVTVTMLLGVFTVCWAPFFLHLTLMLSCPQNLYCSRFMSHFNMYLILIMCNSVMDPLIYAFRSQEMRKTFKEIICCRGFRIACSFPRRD

[5] = molecular target: T5, 168 GPCRs (Homo sapiens, UniProt P11229)
T5 construct: host or cells: PathHunter cell lines
T5 sequence (P11229 1-460): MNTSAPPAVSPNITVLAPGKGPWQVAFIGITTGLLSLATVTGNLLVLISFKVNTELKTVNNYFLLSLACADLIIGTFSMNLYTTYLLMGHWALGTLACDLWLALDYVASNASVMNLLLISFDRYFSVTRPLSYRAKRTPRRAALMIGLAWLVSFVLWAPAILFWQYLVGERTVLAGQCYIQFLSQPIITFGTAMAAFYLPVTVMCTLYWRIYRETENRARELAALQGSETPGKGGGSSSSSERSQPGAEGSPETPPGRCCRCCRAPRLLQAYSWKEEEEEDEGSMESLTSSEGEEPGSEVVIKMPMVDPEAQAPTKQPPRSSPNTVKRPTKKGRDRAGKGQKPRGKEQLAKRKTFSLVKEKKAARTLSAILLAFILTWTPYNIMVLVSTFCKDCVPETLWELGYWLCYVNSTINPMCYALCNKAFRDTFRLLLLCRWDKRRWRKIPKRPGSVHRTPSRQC

[6] = molecular target: T6, 168 GPCRs (Homo sapiens, UniProt Q13324)
T6 construct: host or cells: PathHunter cell lines
T6 sequence (Q13324 1-411): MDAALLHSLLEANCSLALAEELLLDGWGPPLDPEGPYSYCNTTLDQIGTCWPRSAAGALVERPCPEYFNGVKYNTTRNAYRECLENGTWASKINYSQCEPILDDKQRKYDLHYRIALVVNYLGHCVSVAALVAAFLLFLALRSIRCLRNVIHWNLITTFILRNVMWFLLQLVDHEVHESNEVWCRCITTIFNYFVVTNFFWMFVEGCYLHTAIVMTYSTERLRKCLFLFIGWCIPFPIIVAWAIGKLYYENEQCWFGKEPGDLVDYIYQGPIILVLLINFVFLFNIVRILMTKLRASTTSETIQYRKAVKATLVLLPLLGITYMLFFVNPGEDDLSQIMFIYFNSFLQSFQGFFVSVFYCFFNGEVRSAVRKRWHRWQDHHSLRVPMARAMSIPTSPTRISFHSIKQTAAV

[7] = molecular target: T7, 168 GPCRs (Homo sapiens, UniProt Q9HC97)
T7 construct: host or cells: PathHunter cell lines
T7 sequence (Q9HC97 whole entry): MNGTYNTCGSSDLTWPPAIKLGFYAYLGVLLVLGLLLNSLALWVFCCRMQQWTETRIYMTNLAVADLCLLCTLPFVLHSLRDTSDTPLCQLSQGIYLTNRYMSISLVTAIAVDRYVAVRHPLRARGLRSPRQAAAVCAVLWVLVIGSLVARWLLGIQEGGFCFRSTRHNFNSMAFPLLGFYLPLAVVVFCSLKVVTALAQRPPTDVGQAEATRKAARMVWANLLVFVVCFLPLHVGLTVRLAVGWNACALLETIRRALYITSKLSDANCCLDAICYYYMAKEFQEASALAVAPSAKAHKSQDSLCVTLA

Structure (SMILES): CNC(C)Cc1ccc2c(c1)OCO2 (centres unmarked) [MDMA, 3,4-Methylenedioxy methamphetamine, reference compound]
- % Agonist Activity ([1]; CCR1, 1 uM): 13.6%
- % Antagonist Activity ([1]; CCR1, 1 uM): -13%
- % Agonist Activity ([1]; CCR1, 10 uM): 6.2%
- % Antagonist Activity ([1]; CCR1, 10 uM): -7.6%
- % Agonist Activity ([2]; 1 uM): 0%
- % Antagonist Activity ([2]; 1 uM): 2.5%
- % Agonist Activity ([2]; 10 uM): -0.3%
- % Antagonist Activity ([2]; 10 uM): 6.4%
- % Agonist Activity ([3]; 1 uM): -4.8%
- % Antagonist Activity ([3]; 1 uM): -13.9%
- % Agonist Activity ([3]; 10 uM): -4.3%
- % Antagonist Activity ([3]; 10 uM): 1.8%
- % Agonist Activity ([4]; 1 uM): 2.5%
- % Antagonist Activity ([4]; 1 uM): -0.9%
- % Agonist Activity ([4]; 10 uM): 1%
- % Antagonist Activity ([4]; 10 uM): 7.1%
- % Agonist Activity ([5]; CHRM1, 1 uM): 0.2%
- % Antagonist Activity ([5]; CHRM1, 1 uM): 12.1%
- % Agonist Activity ([5]; CHRM1, 10 uM): 0.7%
- % Antagonist Activity ([5]; CHRM1, 10 uM): 0.1%
- % Agonist Activity ([6]; CRHR2, 1 uM): -0.2%
- % Antagonist Activity ([6]; CRHR2, 1 uM): 4.3%
- % Agonist Activity ([6]; CRHR2, 10 uM): -0.1%
- % Antagonist Activity ([6]; CRHR2, 10 uM): 5.7%
- % Agonist Activity ([7]; GPR35, 1 uM): 0.3%
- % Antagonist Activity ([7]; GPR35, 1 uM): -1.1%
- % Agonist Activity ([7]; GPR35, 10 uM): -1.5%
- % Antagonist Activity ([7]; GPR35, 10 uM): 4.6%

Structure (SMILES): CNC(C)C(=O)c1ccc2c(c1)OCO2 (centres unmarked) [methylone]
- % Agonist Activity ([1]; CCR1, 1 uM): -2.6%
- % Antagonist Activity ([1]; CCR1, 1 uM): -8.1%
- % Agonist Activity ([1]; CCR1, 10 uM): 3.6%
- % Antagonist Activity ([1]; CCR1, 10 uM): -16.6%
- % Agonist Activity ([2]; 1 uM): 0.7%
- % Antagonist Activity ([2]; 1 uM): 17.5%
- % Agonist Activity ([2]; 10 uM): -0.1%
- % Antagonist Activity ([2]; 10 uM): 10.9%
- % Agonist Activity ([3]; 1 uM): -5.5%
- % Antagonist Activity ([3]; 1 uM): 28.7%
- % Agonist Activity ([3]; 10 uM): -3.7%
- % Antagonist Activity ([3]; 10 uM): 14.5%
- % Agonist Activity ([4]; 1 uM): -7.9%
- % Antagonist Activity ([4]; 1 uM): 1.7%
- % Agonist Activity ([4]; 10 uM): -8.9%
- % Antagonist Activity ([4]; 10 uM): -6.3%
- % Agonist Activity ([5]; CHRM1, 1 uM): -9.1%
- % Antagonist Activity ([5]; CHRM1, 1 uM): 15.8%
- % Agonist Activity ([5]; CHRM1, 10 uM): -8.5%
- % Antagonist Activity ([5]; CHRM1, 10 uM): 2%
- % Agonist Activity ([6]; CRHR2, 1 uM): 0.9%
- % Antagonist Activity ([6]; CRHR2, 1 uM): -2%
- % Agonist Activity ([6]; CRHR2, 10 uM): 0.9%
- % Antagonist Activity ([6]; CRHR2, 10 uM): -0.3%
- % Agonist Activity ([7]; GPR35, 1 uM): 2.2%
- % Antagonist Activity ([7]; GPR35, 1 uM): 13.2%
- % Agonist Activity ([7]; GPR35, 10 uM): 2.5%
- % Antagonist Activity ([7]; GPR35, 10 uM): 7.3%
